Data from patent publication US6013659A, “Methods of reducing tumor colony number using novel benzothiazole compounds” (University of Pittsburgh, priority 1998, dated 2000).
Read-outs that look alike come from different tables or passages of the source.

Assays:
[1] = system: B16 melanoma pulmonary metastases; test: Early B16 pulmonary metastasis model (Day 4 B16 Model), A-NK cell adoptive immunotherapy; type: in vivo, C57BL/6 mice; details: for effect on reduction of B16 melanoma pulmonary metastases mediated by A-NK cell adoptive immunotherapy: A-NK cells administered on day 4; for effect on anti-metastatic therapeutic effect of adoptively transferred A-NK cells: conclusion from the two examples; for significance of reduction in tumor burden (in words): compound B experiments (Table 2), three experiments
Protocol: The B16 F1 melanoma model system, herein after referred to as B16 melanoma model system, is recognized as being highly resistant to treatment with many standard clinically used anti-cancer agents. Therefore, it was selected for testing because it is known to be reflective of the clinical situation for advanced melanoma.
A-NK cells were prepared from mouse spleens. All procedures were carried out in a laminar flow hood using sterile reagents and equipment. Briefly, a single cell suspension was prepared by gently mashing the spleens through a 40 mesh stainless steel screen into complete media (CM) which consisted of RPMI 1640 supplemented with 10% heat-inactivated fetal bovine serum, 100 U/ml penicillin, 100 μg/ml streptomycin sulfate, 50 μg/ml gentamicin sulfate, 2 mM L-glutamine, 5×10^-5 M 2-mercaptoethanol and 1% MEM non-essential amino acids. The erythrocytes in the resulting suspension were lysed and the suspension was centrifuged and washed twice with CM. Splencytes were cultured in T-150 flasks at 1.5×10^8 per cells per flask (A flasks) in 50 ml of CM containing 6000 IU rhIL-2/ml. […] On day 6 the A-NK cells were harvested.
Referring to FIG. 1 which illustrated a flow diagram of procedures for tumor metastasis system, A-NK generation, therapy and analysis for arly B16 tumors used in the present invention. All experimental groups initially contained at least 7 animals. A-NK cell generation was started at day -2 and the culture was expanded on days 0 and 1 as described above.
Separately on day 0, B16 tumor cells (2×10^5 i.v.) were injected into C57BL/6 mice. On days 0, 1, 2, 3 and 4, a benzothiazole compound of formula I (100 mg/kg, p.o.) was administered to the mice. On day 3 some animals received cyclophosphamide (300 mg/kg., i.p.) which is a standard chemotherapeutic drug.
Control mice received injections of vehicle diluent (1% gum arabic). […] On day 10, the mice were sacrificed, their lungs removed and the rumor colonies counted.

[2] = system: B16 melanoma pulmonary metastases; details: 216 h
Protocol: A-NK cells were prepared from mouse spleens. All procedures were carried out in a laminar flow hood using sterile reagents and equipment. Briefly, a single cell suspension was prepared by gently mashing the spleens through a 40 mesh stainless steel screen into complete media (CM) which consisted of RPMI 1640 supplemented with 10% heat-inactivated fetal bovine serum, 100 U/ml penicillin, 100 μg/ml streptomycin sulfate, 50 μg/ml gentamicin sulfate, 2 mM L-glutamine, 5×10^-5 M 2-mercaptoethanol and 1% MEM non-essential amino acids. The erythrocytes in the resulting suspension were lysed and the suspension was centrifuged and washed twice with CM. Splencytes were cultured in T-150 flasks at 1.5×10^8 per cells per flask (A flasks) in 50 ml of CM containing 6000 IU rhIL-2/ml. After 2 days the media and the non-adherent cells from the A flasks were transferred into new T-150 flasks (25 ml per flask--B flasks) and fresh CM+IL-2 (25 ml) was placed in the A flasks. The next day (day 3) the non-adherent cells and media from the B flasks were transferred to an equal number of T-150 C flasks and fresh CM+IL-2 was placed on the B flasks. […]
On day 8, 3-4×10^7 A-NK cells plus 120,000 IU of IL-2 were adaptively transferred into tumor-bearing mice. […] On day 9, the mice were sacrificed, their lungs removed and the tumor colonies counted.

in vivo = test: in vivo; design: species or system mice; details: mouse, po, 100 mg/kg
Protocol: (§1) The compound B of the present invention has been tested for its pharmacokinetics and toxicity in mice. As shown in FIG. 3 peak levels of compound B occurred in the liver 1 h after p.o. administration of a single 100 mg/kg dose. […] Mice were dosed for 5 consecutive days with 0-300 mg/kg of compound B in 1% gum arabic (p.o.). Their weight was measured in 1 week intervals and at 4 weeks the animals were sacrificed and their organ weights measured.

[3] = Subacute toxicity study in mice; type: in vivo; details: 0-300 mg/kg p.o. for 5 consecutive days, in 1% gum arabic
Protocol: as §1

SMILES | effect on reduction of B16 melanoma pulmonary metastases mediated by A-NK cell adoptive immunotherapy [1] | reduction of tumor burden (average) ([1]; A-NK cells on day 4, compound A in combination with A-NK cells) [%] | Number of Pulmonary Metastases (± standard deviation) ([1]; Table 1, experiment 1, Compound A + A-NK Cells (with IL-2), 100 mg/kg p.o. days 0-4, control 59 ± 41, *p < 0.05 vs. control) | Number of Pulmonary Metastases (± standard deviation) ([1]; Table 1, experiment 2, Compound A + A-NK Cells (with IL-2), 100 mg/kg p.o. days 0-4, control 32 ± 22, *p < 0.05 vs. control) | Number of Pulmonary Metastases (± standard deviation) ([1]; Table 1, experiment 3, Compound A + A-NK Cells (with IL-2), 100 mg/kg p.o. days 0-4, control 222 ± 74, **p < 0.02 vs. control) | effect on anti-metastatic therapeutic effect of adoptively transferred A-NK cells [1] | reduction of tumor burden (average) [2] [%] | Number of Pulmonary Metastases (± standard deviation) ([1]; Table 2, experiment 1, Compound B + A-NK Cells (with IL-2), 100 mg/kg p.o. days 0-4, control 125 ± 66, *p < 0.05 vs. control) | Number of Pulmonary Metastases (± standard deviation) ([1]; Table 2, experiment 2, Compound B + A-NK Cells (with IL-2), 100 mg/kg p.o. days 0-4, control 187 ± 114, *p < 0.05 vs. control) | Number of Pulmonary Metastases (± standard deviation) ([1]; Table 2, experiment 3, Compound B + A-NK Cells (with IL-2), 100 mg/kg p.o. days 0-4, control 199 ± 45, **p < 0.001 vs. control) | significance of reduction in tumor burden (in words) [1] | Tmax (in vivo) [h] | organ weight change ([3]; at 4 weeks) | body weight change ([3]; weekly weights to 4 weeks) | Number of Pulmonary Metastases (± standard deviation) ([1]; Table 1, experiment 1, given without compound A) | Number of Pulmonary Metastases (± standard deviation) ([1]; Table 1, experiment 2, given without compound A) | Number of Pulmonary Metastases (± standard deviation) ([1]; Table 1, experiment 3, given without compound A, cyclophosphamide *p < 0.05 vs. control) | Number of Pulmonary Metastases (± standard deviation) ([1]; Table 2, experiment 1, given without compound B) | Number of Pulmonary Metastases (± standard deviation) ([1]; Table 2, experiment 2, given without compound B) | Number of Pulmonary Metastases (± standard deviation) ([1]; Table 2, experiment 3, given without compound B)
COc1cccc2sc(-c3ccc(C(C)(C)C)cc3)nc12 [Compound A, 4-Methoxy-2-(4-t-butylphenyl)benzothiazole] | enhanced the reduction | 64 | 24 ± 19 | 13 ± 7 | 58 ± 35 | augment the anti-metastatic therapeutic effect | 38 |  |  |  |  |  |  |  |  |  |  |  |  | 
COc1cccc2sc(-c3ccc(C(F)(F)F)cc3)nc12 [Compound B, 4-Methoxy-2-(4-trifluoromethylphenyl) benzothiazole] | enhanced the reduction |  |  |  |  | augment the anti-metastatic therapeutic effect |  | 66 ± 39 | 88 ± 49 | 88 ± 60 | Significant reduction in tumor burden | 1 | no significant difference | no significant difference |  |  |  |  |  | 
O=P1(N(CCCl)CCCl)NCCCO1 (centres unmarked) [Cyclophosphamide, cyclophosphamide, reference compound] |  |  |  |  |  |  |  |  |  |  | neither A-NK cells alone or cyclophosphamide yielded a significant reduction in tumor burden |  |  |  | 33 ± 25 | 18 ± 12 | 81 ± 60 | 135 ± 55 | 156 ± 120 | 272 ± 110
